Measured values: PMC4601640, “Stability of the Human Hsp90-p50^Cdc37 Chaperone Complex against Nucleotides and Hsp90 Inhibitors, and the Influence of Phosphorylation by Casein Kinase 2” (Molecules, 2015)
“Also recorded” adds a separate entry of the source. Read-outs that look alike come from different tables or passages of the source.

What was measured:
[1] = system: Hsp90β-p50^Cdc37 complex; parameters: method as in PMID 19858214; settings: ref [26]; cited from earlier work
[2] = target: hHsp90β-FL; settings: read-out: Reported Kd, cited from earlier work
[3] = target: T1, ΔHsp90β interaction with GST-p50^Cdc37 (Homo sapiens, UniProt P08238, DEL220-271/E274G/I272G/K273G/K275G); assay: GST pull-down of ΔHsp90β with GST-p50^Cdc37; type: binding; settings: 1 mM nucleotide or 0.1 mM inhibitor, 15 min incubation, SDS-PAGE
T1 construct: human Hsp90β (1-724 Δ220-275); made in house; host or cells: E. coli BL21 Star (DE3) (ΔHsp90β); E. coli BL21 (DE3) (GST-p50Cdc37)
Procedure: GST pull-down experiments were carried out using 1 mL GST 4 FastFlow resin in 8 mL Flex columns (Kontes). All experiments were performed at room temperature by gravity flow. Loading and wash buffers contained 50 mM Tris pH 8, 50 mM KCl, 5 mM MgCl2, and 5% DMSO. The elution buffer contained an additional 10 mM reduced glutathione. […] The resin was washed with 20 CV wash buffer, and samples were eluted with 2 CV elution buffer. Eluted protein was analysed on 12% SDS-PAGE stained with Coomassie blue for visualization.

[4] = target: T2, hΔHsp90β (Homo sapiens, UniProt P08238, DEL220-271/E274G/I272G/K273G/K275G); assay: ITC direct binding to Hsp90β deletion mutant lacking the charged linker; settings: 50 mM HEPES pH 7.5, 10 mM MgCl2, 30 °C, read-out: Observed Kd
T2 construct: human Hsp90β (1-724 Δ220-275); His6 (N); made in house; host or cells: E. coli BL21 Star (DE3)
Source text: The gene encoding human full-length Hsp90β was subcloned from T47D cell line cDNA, and human full-length CK2α was subcloned from MCF7 cell line cDNA, both a kind gift from Dr. Jonathan Lancaster, Moffitt Cancer Center. […] The deleted sections in the two Hsp90 genes were each replaced by four glycine residues. Hsp90α and Hsp90β were subcloned into the pET28a vector (Novagen), and p50^Cdc37 was subcloned into a modified pET28a vector containing a maltose-binding protein (MBP) solubility tag and a PreScission protease cleavage site using restriction enzymes BamHI and NotI (Fermentas) and T4 DNA ligase (Invitrogen) following the manufacturers’ instructions. BamHI was substituted with NdeI for full-length Hsp90β. p50^Cdc37 was also subcloned into the pGEX6P-1 vector (GE Healthcare) using the same procedure as above to provide an N-terminal GST-tag for GST pull-down and ELISA experiments. The plasmids were transformed into E. coli BL21 Star (DE3) (Hsp90α and Hsp90β, Invitrogen), Tuner (DE3) (p50^Cdc37 modified pET28a, Novagen), or BL21 (DE3) (p50^Cdc37 pGEX6P-1, Stratagene) expression strains. Transformed cells were grown in LB broth at 37 °C until the OD600 reached 0.4, then the temperature was lowered to 16 °C, and cells were induced with 0.1 mM IPTG at OD600 = 0.5–0.7. Cultures were then grown for 20–24 h before harvesting by centrifugation (30 min at 30,000× g, 4 °C).
(§1) Binding of p50^Cdc37 and small molecules to Hsp90 was analyzed using a MicroCal iTC200 titration calorimeter (GE Healthcare). Compounds or p50^Cdc37 were titrated into a solution of Hsp90 using the following concentrations: p50^Cdc37 (200 µM) into Hsp90 (20 µM), nucleotides (600 µM) into Hsp90 (30 µM), inhibitors (300 µM) into Hsp90 (30 µM). […] All experiments were conducted in 50 mM HEPES pH 7.5, 10 mM MgCl2 at 30 °C. For titration of inhibitors, the buffer contained 5% DMSO. […] Generation of heat due to dilution was determined in separate experiments by diluting protein into buffer and subtracting these as blank values for each injection. Corrected heat values were fitted using a nonlinear least squares curve-fitting algorithm (Microcal Origin 7.0) to obtain the stoichiometry (n), binding constants (Ka, Kd), and change in enthalpy for each enzyme-ligand interaction (ΔH).

[5] = target: T3, hHsp90β-FL (Homo sapiens, UniProt P08238); assay: ITC direct binding to full-length Hsp90β; settings: unphosphorylated hHsp90β-FL, 30 °C, read-out: Observed Kd
T3 construct: The gene encoding human full-length Hsp90β was subcloned from T47D cell line cDNA; His6 (N); made in house; host or cells: E. coli BL21 Star (DE3)
Procedure: as §1

[6] = target: h(p)Hsp90β-FL (Homo sapiens, UniProt P08238); assay: ITC direct binding to CK2-phosphorylated full-length Hsp90β; settings: 30 °C, read-out: Observed Kd
Procedure: as §1

[7] = target: (p)Hsp90-(p)p50^Cdc37 (Homo sapiens, UniProt P08238); assay: ELISA complex formation, both proteins CK2-phosphorylated; settings: for IC50: ELISA, (p)Hsp90-(p)p50^Cdc37 (phosphorylated complex); for disruption of the phosphorylated complex: CK2-phosphorylated complex
Procedure: (§2) Phosphorylation of full-length Hsp90β and p50^Cdc37 was performed using purified full-length CK2α. The reaction was carried out in a 2.5 mL volume containing 50 µM Hsp90β or p50^Cdc37, 0.5 µM CK2α, 0.5 mM ATP, 20 mM Tris (pH 7.5), 50 mM KCl, and 10 mM MgCl2, and was incubated for 1 h at 30 °C. Samples were removed for analysis of phosphorylation status, and the proteins were re-buffered into 50 mM HEPES (pH 7.5), 150 mM NaCl, and 1 mM DTT (ELISA), or into 50 mM HEPES (pH 7.5) for ITC, using PD-10 gravity columns (GE Healthcare). Dephosphorylation was performed using 2.5 units of FastAP (alkaline phosphatase from Thermo Scientific) in buffer containing 10 mM Tris (pH 8.0 at 37 °C), 5 mM MgCl2, 100 mM KCl, 0.02% Triton-X 100, and 0.5 mg/mL BSA for 1 h at 37 °C.
(§3) Purified GST-p50^Cdc37 (4 µM) or control (purified GST alone, 4 µM) was added to glutathione-coated 96-well plates (Pierce) in 100 μL protein buffer (50 mM HEPES, pH 7.5, 150 mM NaCl, 10 mM MgCl2, 0.05% Tween-20, and 0.1% BSA) and incubated for 1 h at room temperature (triplicate wells per sample). […] The mixtures were then added to the wells (100 μL per well, in triplicates) and incubated for 1 h at room temperature before washing. The wells were incubated with anti-His6-tag mAb (1 mg/mL stock, Abcam), diluted 1:2000 in antibody buffer (50 mM HEPES pH 7.5, 150 mM NaCl, 10 mM MgCl2, 0.05% Tween-20, and 1% BSA) for 1 h, followed by secondary antibody (horse anti-mouse HRP-conjugated IgG, Cell Signaling Technology), diluted 1:5000 in antibody buffer, for 1.5 h at room temperature. After washing three times with 1× HBS-T and two times with 1× HBS, 200 μL HRP substrate (SigmaFast OPD) was added per well. The plates were incubated at room temperature, and the absorbance was read at 450 nm after 15 min and 30 min using a SpectraMax 340 PC plate reader (Molecular Devices). For dose-response measurements, absorption values were corrected for unspecific binding of Hsp90 to immobilized GST, and the raw data were fit to equation (1), where f(I) is the fraction of complex remaining, [I] is the concentration of the inhibitor, IC50 is the half maximal inhibitory concentration against Hsp90-p50^Cdc37 complex formation, n is the Hill slope coefficient, min is the signal remaining at high inhibitor concentrations and max is the signal of the uninhibited complex. Corrected absorption values (ΔOD) for the uninhibited Hsp90-p50^Cdc37 complex (unphosphorylated and phosphorylated) were in the range of 0.4–1.0. Data were expressed relative to the respective max value of Equation (1). (1) f(I)=min+(max−min)/1+([I]/IC50)^n

[8] = target: (p)Hsp90-p50^Cdc37 (Homo sapiens, UniProt P08238); assay: ELISA complex formation, CK2-phosphorylated Hsp90β; settings: ELISA
Procedure: as §2, §3

[9] = target: T4, Hsp90-(p)p50^Cdc37 (Homo sapiens, UniProt P08238); assay: ELISA complex formation, CK2-phosphorylated p50^Cdc37; type: binding
T4 construct: The gene encoding human full-length Hsp90β was subcloned from T47D cell line cDNA; made in house; host or cells: E. coli BL21 Star (DE3) (Hsp90β); E. coli BL21 (DE3) (GST-p50Cdc37)

[10] = target: T5, interaction of the N-terminal domain of Hsp90β with p50^Cdc37 (Homo sapiens, UniProt P08238); assay: ITC of N-terminal Hsp90β with p50^Cdc37 in the presence of ADP; type: binding; settings: 5 mM ADP
T5 construct: human N-terminal Hsp90β (1-219, denoted Hsp90β-N); His6 (N); made in house; host or cells: E. coli BL21 Star (DE3) (Hsp90β-N); E. coli Tuner (DE3) (p50Cdc37)
Procedure: Binding of p50^Cdc37 and small molecules to Hsp90 was analyzed using a MicroCal iTC200 titration calorimeter (GE Healthcare). Compounds or p50^Cdc37 were titrated into a solution of Hsp90 using the following concentrations: p50^Cdc37 (200 µM) into Hsp90 (20 µM), nucleotides (600 µM) into Hsp90 (30 µM), inhibitors (300 µM) into Hsp90 (30 µM). Titrations of compounds into p50^Cdc37 were performed with similar compound/protein ratios. All experiments were conducted in 50 mM HEPES pH 7.5, 10 mM MgCl2 at 30 °C. For titration of inhibitors, the buffer contained 5% DMSO. Typically, an initial 0.5 µL injection was followed by 19 injections of 2.2 µL of syringe solution (compound or p50^Cdc37) into a 200 µL protein solution of Hsp90 constantly stirred at 1000 rpm, and data were recorded for 180 s between injections. Generation of heat due to dilution was determined in separate experiments by diluting protein into buffer and subtracting these as blank values for each injection. Corrected heat values were fitted using a nonlinear least squares curve-fitting algorithm (Microcal Origin 7.0) to obtain the stoichiometry (n), binding constants (Ka, Kd), and change in enthalpy for each enzyme-ligand interaction (ΔH).

[11] = target: T6, Hsp90-p50^Cdc37 (Homo sapiens, UniProt P08238); assay: ELISA complex formation, immobilized GST-p50^Cdc37 and Hsp90β, unphosphorylated; type: binding; settings: for IC50: ELISA, Hsp90-p50^Cdc37 (unphosphorylated)
T6 construct: The gene encoding human full-length Hsp90β was subcloned from T47D cell line cDNA; made in house; host or cells: E. coli BL21 Star (DE3) (Hsp90β); E. coli BL21 (DE3) (GST-p50Cdc37)

[12] = target: T7, ΔHsp90-p50^Cdc37 (Homo sapiens, UniProt P08238, DEL220-271/E274G/I272G/K273G/K275G); assay: ELISA complex formation, ΔHsp90; type: binding
T7 construct: human Hsp90β (1-724 Δ220-275); made in house; host or cells: E. coli BL21 Star (DE3) (ΔHsp90β); E. coli BL21 (DE3) (GST-p50Cdc37)
T7 sequence (P08238 with tags, fused parts or gaps DEL220-271/I272G/K273G/E274G/K275G): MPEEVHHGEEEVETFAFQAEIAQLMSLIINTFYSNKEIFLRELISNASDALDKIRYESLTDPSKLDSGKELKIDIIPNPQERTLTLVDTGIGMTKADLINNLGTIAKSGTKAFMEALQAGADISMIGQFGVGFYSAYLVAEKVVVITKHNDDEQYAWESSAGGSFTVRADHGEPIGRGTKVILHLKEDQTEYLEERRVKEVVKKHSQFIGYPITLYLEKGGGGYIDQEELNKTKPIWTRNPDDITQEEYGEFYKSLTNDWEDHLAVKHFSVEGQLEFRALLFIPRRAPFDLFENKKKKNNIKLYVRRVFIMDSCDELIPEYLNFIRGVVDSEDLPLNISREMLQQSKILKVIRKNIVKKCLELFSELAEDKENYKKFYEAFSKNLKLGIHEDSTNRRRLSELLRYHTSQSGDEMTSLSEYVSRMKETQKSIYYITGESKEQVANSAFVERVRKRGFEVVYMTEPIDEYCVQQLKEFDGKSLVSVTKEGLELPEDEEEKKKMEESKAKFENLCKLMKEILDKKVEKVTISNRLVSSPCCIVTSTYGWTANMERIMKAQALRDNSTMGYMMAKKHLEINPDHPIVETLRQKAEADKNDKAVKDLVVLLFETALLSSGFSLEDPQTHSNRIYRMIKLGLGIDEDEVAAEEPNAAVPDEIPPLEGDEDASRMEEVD

(p)Hsp90-(p)p50^Cdc37, sequence (P08238 whole entry): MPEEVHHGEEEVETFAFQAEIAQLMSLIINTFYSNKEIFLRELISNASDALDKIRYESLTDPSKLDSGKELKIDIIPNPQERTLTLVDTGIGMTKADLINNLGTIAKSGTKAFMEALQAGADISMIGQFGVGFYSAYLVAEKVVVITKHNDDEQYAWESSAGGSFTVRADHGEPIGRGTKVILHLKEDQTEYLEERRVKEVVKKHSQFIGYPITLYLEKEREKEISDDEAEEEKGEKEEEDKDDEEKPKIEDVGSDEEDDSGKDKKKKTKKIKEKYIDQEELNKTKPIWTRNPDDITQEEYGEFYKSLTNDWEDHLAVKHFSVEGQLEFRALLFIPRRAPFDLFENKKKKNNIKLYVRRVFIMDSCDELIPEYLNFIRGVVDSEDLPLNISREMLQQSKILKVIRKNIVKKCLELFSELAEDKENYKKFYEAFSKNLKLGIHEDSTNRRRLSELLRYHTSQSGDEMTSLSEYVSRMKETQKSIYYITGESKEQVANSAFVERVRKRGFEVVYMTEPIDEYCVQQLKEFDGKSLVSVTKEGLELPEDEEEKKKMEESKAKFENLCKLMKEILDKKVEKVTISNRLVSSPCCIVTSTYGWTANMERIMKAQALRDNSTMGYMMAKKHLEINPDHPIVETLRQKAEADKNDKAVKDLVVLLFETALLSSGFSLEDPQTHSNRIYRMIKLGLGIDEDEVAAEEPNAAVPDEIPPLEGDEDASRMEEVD
(p)Hsp90-p50^Cdc37, sequence (P08238 whole entry): as above
h(p)Hsp90β-FL, sequence (P08238 whole entry): as above
T1 sequence (P08238 with tags, fused parts or gaps DEL220-271/I272G/K273G/E274G/K275G): as the sequence (P08238 with tags, fused parts or gaps DEL220-271/I272G/K273G/E274G/K275G) above
T2 sequence (P08238 with tags, fused parts or gaps DEL220-271/I272G/K273G/E274G/K275G): as above
T5 sequence (P08238 1-219): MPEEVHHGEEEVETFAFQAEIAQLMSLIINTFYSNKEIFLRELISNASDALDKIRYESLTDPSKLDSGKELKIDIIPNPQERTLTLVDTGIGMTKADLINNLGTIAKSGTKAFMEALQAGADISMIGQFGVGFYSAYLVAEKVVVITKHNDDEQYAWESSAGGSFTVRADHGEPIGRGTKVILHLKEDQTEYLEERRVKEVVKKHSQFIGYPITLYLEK

Row | Kd [4] | Kd [5] | Kd [6] | IC50 [7] | IC50 ([8]; (p)Hsp90-p50^Cdc37) | IC50 ([8]; span: phosphorylation of either Hsp90 or p50^Cdc37) | IC50 [9] | interaction of N-terminal Hsp90β with p50^Cdc37 in the presence of ADP [10] | IC50 [11] | IC50 [12] | disruption of the phosphorylated complex [7] | SMILES | effect on complex formation between Hsp90β and p50^Cdc37 [1] | Kd ([2]; ref [33]) | effect on complex in GST pull-down [3] | Kd ([2]; ref [31]) | inhibitory activity against the complex ([11]; unphosphorylated or phosphorylated complex, in vitro)
1 | – | – | – | – | – | – | – | – | – | – | – | C=CCNC1=C2C[C@@H](C)C[C@H](OC)[C@H](O)[C@@H](C)/C=C(\C)[C@H](OC(N)=O)[C@@H](OC)/C=C\C=C(/C)C(=O)NC(=CC1=O)C2=O [17-AAG, Tanespimycin] | showed no effect | – | – | – | –
2 | – | – | – | – | – | – | – | – | – | – | – | CO[C@H]1/C=C\C=C(/C)C(=O)NC2=CC(=O)C(NCCN(C)C)=C(C[C@@H](C)C[C@H](OC)[C@H](O)[C@@H](C)/C=C(\C)[C@@H]1OC(N)=O)C2=O [17-DMAG] | showed no effect | 0.35 µM | – | – | –
3 | 11 µM | 8.9 µM | 13 µM | 32 ± 5.6 µM | 220 ± 24 µM | 220 to 270 µM | 270 ± 35 µM | abolished | 500 ± 94 µM | 400 ± 81 µM | – | Nc1ncnc2c1ncn2[C@@H]1O[C@H](COP(=O)(O)OP(=O)(O)O)[C@@H](O)[C@H]1O [ADP] | did not exert inhibitory activity; also recorded: showed no effect | – | inhibited formation of the complex; also recorded: caused disruption of the complex | 7.2 µM | –
4 | 84 µM | 85 µM | 590 µM | > 1000 µM | > 1000 µM | – | – | – | > 1000 µM | > 1000 µM | remained largely ineffective | Nc1ncnc2c1ncn2[C@@H]1O[C@H](COP(=O)(O)OP(=O)(O)NP(=O)(O)O)[C@@H](O)[C@H]1O [AMP-PNP] | – | – | – | 148 µM | did not show appreciable inhibitory activity
5 | 43 µM | 4.6 µM | 11 µM | 230 ± 40 µM | 450 ± 150 µM | – | > 1000 µM | – | > 1000 µM | > 1000 µM | remained largely ineffective | Nc1ncnc2c1ncn2[C@@H]1O[C@H](COP(=O)(O)OP(=O)(O)OP(=O)(O)O)[C@@H](O)[C@H]1O [ATP] | – | – | stable complex | 240 µM | –
